Experimental data as given in the NIST ThermoML archive (doi:10.1016/j.fluid.2014.11.020).
Numbers after ± are expanded uncertainties.

Assay: activity coefficient (dimensionless); of the first substance listed, at infinite dilution; xn = mol fraction of the nth substance listed
Settings: Liquid, Chromatography, x1 = 0

Compound | activity coefficient (323.15 K) | activity coefficient (333.15 K) | activity coefficient (343.15 K)
CCC(C)=O [butanone] + CCCOC[n+]1ccn(Cc2ccccc2)c1.N#C[N-]C#N | 0.9 ± 0.06 | 0.87 ± 0.06 | 0.81 ± 0.05
C1COCCO1 [1,4-dioxane] + CCCCCCCCn1cc[n+](COCCCOC[n+]2ccn(CCCCCCCC)c2C)c1C.O=S(=O)([N-]S(=O)(=O)C(F)(F)F)C(F)(F)F.O=S(=O)([N-]S(=O)(=O)C(F)(F)F)C(F)(F)F | 0.28 ± 0.03 | 0.27 ± 0.03 | 0.28 ± 0.03
Cc1cccc(C)c1 [1,3-dimethylbenzene] + Cn1cc[n+](COCCCOC[n+]2ccn(C)c2)c1.O=S(=O)([N-]S(=O)(=O)C(F)(F)F)C(F)(F)F.O=S(=O)([N-]S(=O)(=O)C(F)(F)F)C(F)(F)F | 2.39 ± 0.16 | 2.41 ± 0.16 | 2.38 ± 0.16
c1ccccc1 [benzene] + CCCOC[n+]1ccc(N(C)C)cc1.O=S(=O)([N-]S(=O)(=O)C(F)(F)F)C(F)(F)F | 0.74 ± 0.05 | 0.78 ± 0.05 | 0.78 ± 0.05
CCCCCCCCCC [decane] + CCCOC[n+]1ccn(Cc2ccccc2)c1.O=S(=O)([N-]S(=O)(=O)C(F)(F)F)C(F)(F)F | 28.8 ± 2 | 23.2 ± 1.6 | 21.1 ± 1.4
CC#N [acetonitrile] + Cn1cc[n+](COCCCOC[n+]2ccn(C)c2)c1.N#C[N-]C#N.N#C[N-]C#N | 0.68 ± 0.05 | 0.68 ± 0.05 | 0.69 ± 0.05
Cc1cccc(C)c1 [1,3-dimethylbenzene] + CN(C)c1cc[n+](COCCCOC[n+]2ccc(N(C)C)cc2)cc1.O=S(=O)([N-]S(=O)(=O)C(F)(F)F)C(F)(F)F.O=S(=O)([N-]S(=O)(=O)C(F)(F)F)C(F)(F)F | 1.36 ± 0.09 | 1.38 ± 0.09 | 1.4 ± 0.09
ClCCl [dichloromethane] + CCCCCCCCn1cc[n+](COCCC)c1C.O=S(=O)([N-]S(=O)(=O)C(F)(F)F)C(F)(F)F | 0.42 ± 0.04 | 0.43 ± 0.04 | 0.48 ± 0.04
CCCO [propan-1-ol] + CCCOC[n+]1ccn(C)c1.N#C[N-]C#N | 0.97 ± 0.06 | 0.95 ± 0.06 | 0.92 ± 0.06
c1ccncc1 [pyridine] + CCCCCCCCn1cc[n+](COCCCOC[n+]2ccn(CCCCCCCC)c2C)c1C.N#C[N-]C#N.N#C[N-]C#N | 0.4 ± 0.03 | 0.38 ± 0.03 | 0.38 ± 0.03
CCc1ccccc1 [ethylbenzene] + CCCOC[n+]1ccn(C)c1.O=S(=O)([N-]S(=O)(=O)C(F)(F)F)C(F)(F)F | 2.55 ± 0.17 | 2.51 ± 0.17 | 2.51 ± 0.17
C1COCCO1 [1,4-dioxane] + CCCCCCCCn1cc[n+](COCCC)c1C.O=S(=O)([N-]S(=O)(=O)C(F)(F)F)C(F)(F)F | 0.5 ± 0.04 | 0.49 ± 0.04 | 0.49 ± 0.04
Cc1ccccc1C [1,2-dimethylbenzene] + CCCOC[n+]1ccn(C)c1.F[B-](F)(F)F | 9.13 ± 0.62 | 8.97 ± 0.61 | 8.93 ± 0.61
C#CCCCCC [1-heptyne] + CN(C)c1cc[n+](COCCCOC[n+]2ccc(N(C)C)cc2)cc1.O=S(=O)([N-]S(=O)(=O)C(F)(F)F)C(F)(F)F.O=S(=O)([N-]S(=O)(=O)C(F)(F)F)C(F)(F)F | 4.2 ± 0.29 | 4.09 ± 0.28 | 4.01 ± 0.27
Cc1cccc(C)c1 [1,3-dimethylbenzene] + CCCOC[n+]1ccn(Cc2ccccc2)c1.F[B-](F)(F)F | 5.41 ± 0.37 | 4.91 ± 0.33 | 4.91 ± 0.33
ClC(Cl)Cl [trichloromethane] + CCCOC[n+]1ccn(Cc2ccccc2)c1.O=S(=O)([N-]S(=O)(=O)C(F)(F)F)C(F)(F)F | 0.73 ± 0.05 | 0.65 ± 0.04 | 0.66 ± 0.05
C1COCCO1 [1,4-dioxane] + Cn1cc[n+](COCCCOC[n+]2ccn(C)c2)c1.O=S(=O)([N-]S(=O)(=O)C(F)(F)F)C(F)(F)F.O=S(=O)([N-]S(=O)(=O)C(F)(F)F)C(F)(F)F | 0.37 ± 0.03 | 0.39 ± 0.03 | 0.39 ± 0.03
c1ccncc1 [pyridine] + CCCOC[n+]1ccn(Cc2ccccc2)c1.F[B-](F)(F)F | 0.6 ± 0.04 | 0.61 ± 0.04 | 0.65 ± 0.04
CCC[N+](=O)[O-] [1-nitropropane] + CCCOC[n+]1ccn(C)c1.O=S(=O)([N-]S(=O)(=O)C(F)(F)F)C(F)(F)F | 0.74 ± 0.05 | 0.72 ± 0.05 | 0.72 ± 0.05
C1CCCCCC1 [cycloheptane] + CCCCCCCCn1cc[n+](COCCCOC[n+]2ccn(CCCCCCCC)c2C)c1C.N#C[N-]C#N.N#C[N-]C#N | 10.1 ± 0.69 | 13.5 ± 0.92 | 18.3 ± 1.2
CCCO [propan-1-ol] + CCCOC[n+]1ccn(C)c1.F[B-](F)(F)F | 3.1 ± 0.21 | 2.79 ± 0.19 | 2.53 ± 0.17
C[N+](=O)[O-] [nitromethane] + CCCCCCCCn1cc[n+](COCCC)c1C.N#C[N-]C#N | 0.68 ± 0.05 | 0.66 ± 0.05 | 0.63 ± 0.04

Compound | activity coefficient (323.15 K) | activity coefficient (333.15 K) | activity coefficient (343.15 K)
CCC(C)=O [butanone] + CCCOC[n+]1ccn(Cc2ccccc2)c1.F[B-](F)(F)F | 1.06 ± 0.07 | 0.96 ± 0.06 | 0.89 ± 0.06
Cc1ccc(C)cc1 [1,4-dimethylbenzene] + CCCOC[n+]1ccc(N(C)C)cc1.O=S(=O)([N-]S(=O)(=O)C(F)(F)F)C(F)(F)F | 1.38 ± 0.09 | 1.45 ± 0.1 | 1.45 ± 0.1
Cc1ccccc1 [toluene] + CCCCCCCCn1cc[n+](COCCCOC[n+]2ccn(CCCCCCCC)c2C)c1C.O=S(=O)([N-]S(=O)(=O)C(F)(F)F)C(F)(F)F.O=S(=O)([N-]S(=O)(=O)C(F)(F)F)C(F)(F)F | 0.54 ± 0.04 | 0.53 ± 0.04 | 0.54 ± 0.04
CCCCCCCCC [nonane] + CCCOC[n+]1ccn(C)c1.N#C[N-]C#N | 263 ± 18 | 234 ± 16 | 197 ± 14
CCC(=O)CC [pentan-3-one] + N#C[N-]C#N.N#C[N-]C#N.c1ccc(Cn2cc[n+](COCCCOC[n+]3ccn(Cc4ccccc4)c3)c2)cc1 | 2.88 ± 0.2 | 2.89 ± 0.2 | 2.91 ± 0.2
CCCCCCCCC [nonane] + Cn1cc[n+](COCCCOC[n+]2ccn(C)c2)c1.O=S(=O)([N-]S(=O)(=O)C(F)(F)F)C(F)(F)F.O=S(=O)([N-]S(=O)(=O)C(F)(F)F)C(F)(F)F | 105 ± 7.2 | 96.7 ± 6.6 | 72.4 ± 5
CC(C)OC(C)C [diisopropyl ether] + CCCOC[n+]1ccn(Cc2ccccc2)c1.F[B-](F)(F)F | 17.6 ± 1.2 | 14.8 ± 1 | 
C1CCCCCC1 [cycloheptane] + CCCOC[n+]1ccn(C)c1.O=S(=O)([N-]S(=O)(=O)C(F)(F)F)C(F)(F)F | 27.2 ± 1.9 | 35.8 ± 2.5 | 46.1 ± 3.2
ClC(Cl)(Cl)Cl [tetrachloromethane] + CCCOC[n+]1ccc(N(C)C)cc1.O=S(=O)([N-]S(=O)(=O)C(F)(F)F)C(F)(F)F | 2.01 ± 0.14 | 2.08 ± 0.14 | 1.95 ± 0.13
Cc1cccc(C)c1 [1,3-dimethylbenzene] + CCCOC[n+]1ccc(N(C)C)cc1.O=S(=O)([N-]S(=O)(=O)C(F)(F)F)C(F)(F)F | 1.4 ± 0.09 | 1.47 ± 0.1 | 1.48 ± 0.1
CC1CCCCC1 [methylcyclohexane] + CCCOC[n+]1ccc(N(C)C)cc1.O=S(=O)([N-]S(=O)(=O)C(F)(F)F)C(F)(F)F | 9.3 ± 0.63 | 8.99 ± 0.61 | 7.79 ± 0.53
ClCCl [dichloromethane] + CCCCCCCCn1cc[n+](COCCCOC[n+]2ccn(CCCCCCCC)c2C)c1C.N#C[N-]C#N.N#C[N-]C#N | 0.28 ± 0.03 | 0.29 ± 0.03 | 0.31 ± 0.03
c1ccccc1 [benzene] + CCCCCCCCn1cc[n+](COCCCOC[n+]2ccn(CCCCCCCC)c2C)c1C.N#C[N-]C#N.N#C[N-]C#N | 0.7 ± 0.05 | 0.71 ± 0.05 | 0.71 ± 0.05
c1ccccc1 [benzene] + CCCCCCCCn1cc[n+](COCCCOC[n+]2ccn(CCCCCCCC)c2C)c1C.O=S(=O)([N-]S(=O)(=O)C(F)(F)F)C(F)(F)F.O=S(=O)([N-]S(=O)(=O)C(F)(F)F)C(F)(F)F | 0.42 ± 0.04 | 0.41 ± 0.03 | 0.41 ± 0.03
Cc1ccccc1 [toluene] + CCCCCCCCn1cc[n+](COCCC)c1C.N#C[N-]C#N | 1.43 ± 0.09 | 1.22 ± 0.08 | 1.15 ± 0.07
CCc1ccccc1 [ethylbenzene] + CCCCCCCCn1cc[n+](COCCC)c1C.O=S(=O)([N-]S(=O)(=O)C(F)(F)F)C(F)(F)F | 1.01 ± 0.06 | 1.03 ± 0.06 | 1.04 ± 0.07
C1CCCCCC1 [cycloheptane] + CCCOC[n+]1ccn(Cc2ccccc2)c1.O=S(=O)([N-]S(=O)(=O)C(F)(F)F)C(F)(F)F | 13.4 ± 0.91 | 15.8 ± 1.1 | 20.5 ± 1.4
CC(C)O [propan-2-ol] + CCCCCCCCn1cc[n+](COCCC)c1C.O=S(=O)([N-]S(=O)(=O)C(F)(F)F)C(F)(F)F | 1.16 ± 0.07 | 1.05 ± 0.07 | 0.99 ± 0.06
CCOCC [diethyl ether] + CCCCCCCCn1cc[n+](COCCC)c1C.O=S(=O)([N-]S(=O)(=O)C(F)(F)F)C(F)(F)F | 1.13 ± 0.07 | 1.11 ± 0.07 | 
Cc1ccc(C)cc1 [1,4-dimethylbenzene] + Cn1cc[n+](COCCCOC[n+]2ccn(C)c2)c1.O=S(=O)([N-]S(=O)(=O)C(F)(F)F)C(F)(F)F.O=S(=O)([N-]S(=O)(=O)C(F)(F)F)C(F)(F)F | 2.39 ± 0.16 | 2.41 ± 0.16 | 2.34 ± 0.16
CCC[N+](=O)[O-] [1-nitropropane] + CCCCCCCCn1cc[n+](COCCC)c1C.N#C[N-]C#N | 0.76 ± 0.05 | 0.75 ± 0.05 | 0.75 ± 0.05
